Measurements published in publication PMC12649535, “Development of New Antimicrobial Peptides by Directional Selection” (Antibiotics, 2025).
Ends that are not written are not given here.

Experiments:
Type in all cases: cell-based
Bacillus subtilis 168 HT = conditions: 16 h
Text: (§1) Peptides were synthesized on an automated Liberty Blue synthesizer (CEM Corp., Matthews, NC, USA) using solid-phase Fmoc chemistry with microwave-assisted heating. Two types of resin were selected for peptide synthesis to accommodate different molecular weights. Fmoc-Rink amide aminomethyl-polystyrene resin (ABCR GmbH & Co KG, Karlsruhe, Germany) with a loading capacity of 0.78 mmol/g was used for peptides with a molecular weight of up to 3 kDa. For peptides with a molecular weight exceeding 3 kDa, Fmoc-Rink amide PEG MBHA resin (ABCR GmbH & Co KG, Karlsruhe, Germany) with a loading capacity of 0.48 mmol/g was used. The target products were obtained with a purity of over 95% after purification of the peptides by reversed-phase HPLC on an AKTA Pure 25 M1 system (GE Healthcare Life Sciences, Chicago, IL, USA) equipped with a Zorbax SB-C18 column (Agilent Technologies, Santa Clara, CA, USA) and UV detection. All HPLC-spectra and HRMS-spectra are available at the Supplementary Materials (Figures S1–S23). The antimicrobial activity of synthetic peptides was measured using the standard microdilution method in microtiter plates. Peptides were dissolved in water to a concentration of 1 mM. Cultures of Bacillus subtilis 168 HT and Escherichia coli MG1655 were grown in a shaker at 30 °C in MHB medium (BD Difco, Thermo Fisher Scientific Inc., Waltham, MA, USA) for 16 h. The resulting cultures were diluted 1:50 in fresh MHB medium and grown in a shaker at 37 °C until reaching mid-logarithmic phase. The bacterial cultures were then further diluted in MHB to a concentration of 10^6 CFU/mL.
(§2) Peptides were serially twofold diluted in MHB in 96-well plates to final concentrations ranging from 100 to 0.2 µM, with a total volume of 50 µL per well. Subsequently, 50 µL of bacterial suspension (10^6 CFU/mL) was added to each well. Plates were incubated overnight at 37 °C. Each experiment included positive controls (melittin) and negative controls (without peptide). Antimicrobial activity was assessed by measuring the optical density at 600 nm (OD600) using a microplate reader AMR-100.

Escherichia coli MG1655 = conditions: MG1655, 16 h
Text: as §1, §2

Expi293F cells = test: Cytotoxicity, MTT assay; conditions: Figure 7 and text, 24 h, 200 to 0.0975 µM, NA = no activity within tested concentration range
Description: For the synthesized peptides, we determined the minimum inhibitory concentration (MIC) against B. subtilis (MICBs) and E. coli (MICEc) and measured cytotoxicity (IC90) in Expi293F cells (human embryonic kidney cells) using an MTT assay (Figure 7A–C, Tables S1–S4).
Peptide cytotoxicity was assessed using the MTT assay on Expi293F cells (human embryonic kidney cells) (Thermo Fisher Scientific, Waltham, MA, USA). Viable cells with active metabolism reduce water-soluble MTT (Abcam, Cambridge, UK) to insoluble formazan, while dead cells lose this ability and produce no signal. The absorbance measured at 600 nm is proportional to the number of living cells. Expi293F cells were seeded in 96-well plates at a density of 1 × 10^5 cells/mL. After 24 h, peptides were added to the wells at final concentrations ranging from 200 to 0.0975 µM. […] Cells were incubated with peptides in a CO2 incubator at 37 °C and 5% CO2 for 24 h. […] Peptide cytotoxicity was evaluated by measuring optical density at 600 nm and 690 nm using a microplate reader AMR-100. Normalized absorbance was defined as (OD600–OD690). The percentage of cell viability was calculated using the formula: % Cell viability = (ODtreated/ODtotal) × 100, where ODtreated is the normalized absorbance of treated cells and ODtotal is the normalized absorbance of non-treated (control) cells.

| Substance | MIC B. subtilis (Bacillus subtilis 168 HT) | MIC E. coli (Escherichia coli MG1655) | IC90 (cytotoxicity, concentration that inhibits 90% of cell growth) (Expi293F cells) |
| --- | --- | --- | --- |
| EIGWRRRICNYL-NH2 [A2R2P7] | 6.2 µM | 25.0 µM |  |
| EKDWPRRILYCF-NH2 [A2R3P10] | 50.0 µM |  |  |
| EKGRRRWIFYFF-NH2 [A2R3P7] | 25.0 µM | 12.5 µM |  |
| EKGWLRRIFYCF-NH2 [A2R3P8] | 6.2 µM | 25.0 µM |  |
| EKGWRRWIFFSF-NH2 [A2R3P6] | 12.5 µM | 12.5 µM |  |
| EKGWRRWIFNYF-NH2 [A2R1P5] | 6.2 µM | 6.2 µM |  |
| EKGWRRWIFYCF-NH2 [A2R2P3] | 25.0 µM | 50.0 µM |  |
| EKRWRRLIFNYF-NH2 [Hm-AMP2, reference compound] | 12.5 µM | 3.1 µM |  |
| SFVCKTVKKMNNSAKKGFREGIALAIQGGPR-NH2 [CR2P8] | 25.0 µM | 6.2 µM |  |
| SLIFKIVKKMDDIGKKRIREGIAIPLQGGPR-NH2 [CR2P7] |  | 50.0 µM |  |
| SLMFITVKKLDNSSRIRIRVGIAIAIQGGPR-NH2 [CR2P2] | 25.0 µM | 25.0 µM |  |
| SLMFKTVKKMDNSAKKRIREGIAIAIQGGPR-NH2 [CR1P5] |  | 6.2 µM |  |
| SLMFKTVKKMDNSVKKRFREGMAIAMQCGPR-NH2 [CR2P9] | 25.0 µM | 3.1 µM |  |
| SWLSKTAKKLENSAKKRISEGIAIAIQGGPR-NH2 [cecropin, reference compound] |  | 0.4 µM | 200 µM |
